{"source": "paper PMC3486884", "about": "(PLoS Pathogens, 2012)", "key": {"v-ATPase": {"molecular_target": "v-ATPase (Bos taurus, UniProt P23956)", "test": "v-ATPase inhibition assay (Pi production in clathrin-coated vesicles)", "details": "bovine brain clathrin-coated vesicles"}, "HRV1A [1]": {"tested_on": "HRV1A", "test": "Full cycle infectivity assay (virus titer, TCID50)", "format": "cell-based, human rhinovirus", "details": "full cycle assays; BafA1 (0.5 nM), alone or drug combination"}, "[2]": {"tested_on": "clathrin-coated vesicles (CCV)", "test": "Acridine orange measurements in clathrin-coated vesicles", "details": "AO red fluorescence assay"}, "HRV2 [3]": {"tested_on": "HRV2"}, "[4]": {"test": "Liposome dextran-FITC de-quenching", "details": "read-out: FITC-fluorescence dequenching, half maximal efficacy; liposomes loaded at pH 5.15 with dextran-FITC"}, "CVA21 [5]": {"tested_on": "CVA21"}, "HSV1 [6]": {"tested_on": "HSV1"}, "rats": {"tested_on": "rats", "details": "cited from earlier work"}, "HRV1A [7]": {"tested_on": "HRV1A", "test": "microbe, parasite or virus in culture", "details": "Human rhinovirus sp."}, "[8]": {"details": "cited from earlier work"}, "[9]": {"test": "pKa and log P quoted from the literature", "format": "physicochemical", "details": "pH 7.4"}, "HRV16 [10]": {"tested_on": "HRV16"}, "[11]": {"tested_on": "influenza virus (strain A/Puerto Rico/8/34/H1N1 depicted PR8)"}, "HRV14 [12]": {"tested_on": "HRV14"}, "CVA21 [13]": {"tested_on": "CVA21", "test": "microbe, parasite or virus in culture", "details": "Coxsackievirus, CVA21, HeLa, read-out: IC50 (CVA21)"}, "CVB3 [14]": {"tested_on": "CVB3"}, "HSV1 [15]": {"tested_on": "HSV1", "test": "microbe, parasite or virus in culture", "details": "Human alphaherpesvirus 1, read-out: IC50 (HSV1)"}, "HRV2 [16]": {"tested_on": "HRV2", "test": "microbe, parasite or virus in culture", "details": "Human rhinovirus sp., HRV2, HeLa, read-out: IC50 (HRV2)"}, "CVB3 [17]": {"tested_on": "CVB3", "test": "microbe, parasite or virus in culture", "details": "Enterovirus B, CVB3, HeLa, read-out: IC50 (CVB3)"}, "HRV14 [18]": {"tested_on": "HRV14", "test": "microbe, parasite or virus in culture", "details": "Human rhinovirus sp., HRV14, HeLa, read-out: IC50 (HRV14)"}, "CVB4 [19]": {"tested_on": "CVB4"}, "[20]": {"tested_on": "influenza virus (strain A/Puerto Rico/8/34/H1N1 depicted PR8)", "test": "microbe, parasite or virus in culture", "details": "unidentified influenza virus, A549, read-out: IC50 (PR8)"}, "HRV1A [21]": {"tested_on": "HRV1A", "test": "HRV1A infection of WI-38 human embryonic diploid airway cells", "format": "cell-based", "details": "Human rhinovirus sp.", "experimental": "A single cell high-content, image based infection assay was applied to measure infection in high throughput format. Viruses were added to cells in infection medium containing BSA (DMEM containing 25 mM HEPES if used outside of a CO2 cell culture incubator, supplemented with L-glutamine, 30 mM MgCl2 and 0.2% BSA (Sigma) for CV and HRV), or in infection medium containing trypsin-TPCK (DMEM supplemented with L-glutamine and TPCK-trypsin 1 µg/ml (Sigma) for FLU/PR8) and normal growth media for HSV. For all experiments, the multiplicity of infection (moi) was chosen such that approximately 20–40% of the cells were infected at 7 h post infection (pi) (HRV &CV), 8 h pi (FLU) or 18 h pi (HSV). Cells were fixed by adding 1/3 volume of a 16% para-formaldehyde solution, washed with PBS, PBS/25 mM NH4Cl and PBS, permeabilized with 0.2% Triton X-100 (Sigma), washed twice with PBS and blocked with PBS/1% BSA (Fraction V, Sigma). […] Routinely, 9–20 images per well were acquired yielding an average of 5000–12000 cells analysed per well and data point. […] Images were analyzed using a custom written Matlab routine. […]\nCompounds were dissolved in dimethyl sulfoxid (DMSO, cell culture grade, Sigma) and added to cells in dilutions indicated with respective concentrations of solvent alone as controls. […] Infection was quantified by immune-staining for dsRNA. […]"}, "HRV16 [22]": {"tested_on": "HRV16", "test": "microbe, parasite or virus in culture", "details": "Human rhinovirus sp., HRV16, HeLa, read-out: IC50 (HRV16)"}, "CVB4 [23]": {"tested_on": "CVB4", "test": "microbe, parasite or virus in culture", "details": "Enterovirus B, CVB4, HeLa, read-out: IC50 (CVB4)"}, "HRV1A, 2, 14, 16": {"tested_on": "HRV1A, 2, 14, 16", "test": "Infection assays with the HRV panel in HeLa cells", "format": "cell-based, human rhinovirus"}, "hepatitis C virus": {"tested_on": "hepatitis C virus", "details": "cited from earlier work"}}, "note": "Where “and” joins values, the source holds several entries; their conditions need not be identical. Equal values may be shown once. Read-outs that look alike come from different tables or passages of the source."}
{"smiles": "CO/C1=C\\C(C)=C\\[C@@H](C)[C@@H](O)[C@@H](C)C/C(C)=C/C=C/[C@H](OC)[C@@H]([C@@H](C)[C@@H](O)[C@H](C)[C@@]2(O)C[C@@H](O)[C@H](C)[C@@H](C(C)C)O2)OC1=O", "note": "[BafA1, bafilomycin A1]", "values": [{"measurement": "v-ATPase activity (ATP hydrolysis, production of Pi)", "setting": "v-ATPase", "result": "completely blocked the production of Pi"}, {"measurement": "decrease of virus titers", "setting": "HRV1A [1]", "result": "about five-fold"}, {"measurement": "pH of isolated CCV", "setting": "[2]", "result": "neutralized the pH of CCV in a dose-dependent manner"}]}
{"smiles": "O=C(Nc1ccc([N+](=O)[O-])cc1Cl)c1cc(Cl)ccc1O", "note": "[niclosamide, 5-chloro-N-(2-chloro-4-nitrophenyl)-2-hydroxybenzamide, reference compound]", "values": [{"measurement": "TI (IC50 / CC50), HRV2", "setting": "HRV2 [3]", "result": 20.1}, {"measurement": "EC50", "setting": "[4]", "result": 14000, "unit": "nM"}, {"measurement": "TI (IC50 / CC50), CVA21", "setting": "CVA21 [5]", "result": 3.06}, {"measurement": "TI (IC50 / CC50), HSV1", "setting": "HSV1 [6]", "result": 1.37}, {"measurement": "acute oral toxicity LD50", "setting": "rats", "result": "> 5", "unit": "g/kg body weight"}, {"measurement": "IC50", "setting": "HRV1A [7]; HeLa, read-out: IC50 (HRV1A)", "result": 1040, "unit": "nM"}, {"measurement": "activity at 0.03 µM", "setting": "HRV1A [7]; M-HeLa, 7 h, read-out: HRV1A infection (dsRNA), 0.03 µM", "result": 98, "unit": "%"}, {"measurement": "activity at 0.1 µM", "setting": "HRV1A [7]; M-HeLa, 7 h, read-out: HRV1A infection (dsRNA), 0.10 µM", "result": 96, "unit": "%"}, {"measurement": "activity at 0.31 µM", "setting": "HRV1A [7]; M-HeLa, 7 h, read-out: HRV1A infection (dsRNA), 0.31 µM", "result": 90, "unit": "%"}, {"measurement": "activity at 0.93 µM", "setting": "HRV1A [7]; M-HeLa, 7 h, read-out: HRV1A infection (dsRNA), 0.93 µM", "result": 39, "unit": "%"}, {"measurement": "activity at 2.78 µM", "setting": "HRV1A [7]; M-HeLa, 7 h, read-out: HRV1A infection (dsRNA), 2.78 µM", "result": 4, "unit": "%"}, {"measurement": "activity at 8.33 µM", "setting": "HRV1A [7]; M-HeLa, 7 h, read-out: HRV1A infection (dsRNA), 8.33 µM", "result": 5, "unit": "%"}, {"measurement": "activity at 25 µM", "setting": "HRV1A [7]; M-HeLa, 7 h, read-out: HRV1A infection (dsRNA), 25.00 µM", "result": 4, "unit": "%"}, {"measurement": "log P", "setting": "[8]; pH 5.7", "result": 5.63}, {"measurement": "log P", "setting": "[8]; pH 7", "result": 4.48}, {"measurement": "molecules in the deprotonated form", "setting": "[9]", "result": "about 99%"}, {"measurement": "decrease of virus titers", "setting": "HRV1A [1]", "result": "about five-fold"}, {"measurement": "TI (IC50 / CC50), HRV16", "setting": "HRV16 [10]", "result": 14.7}, {"measurement": "TI (IC50 / CC50), PR8", "setting": "[11]", "result": 24.4}, {"measurement": "TI (IC50 / CC50), HRV14", "setting": "HRV14 [12]", "result": 24.1}, {"measurement": "IC50", "setting": "CVA21 [13]", "result": 6630, "unit": "nM"}, {"measurement": "TI (IC50 / CC50), CVB3", "setting": "CVB3 [14]", "result": "< 0.4"}, {"measurement": "IC50", "setting": "HSV1 [15]", "result": "> 10000 nM and 14800 nM"}, {"measurement": "IC50", "setting": "HRV2 [16]", "result": 1010, "unit": "nM"}, {"measurement": "IC50", "setting": "CVB3 [17]", "result": "> 50000", "unit": "nM"}, {"measurement": "pH of isolated CCV", "setting": "[2]", "result": "neutralized the pH of CCV in a dose-dependent manner"}, {"measurement": "IC50", "setting": "HRV14 [18]", "result": 840, "unit": "nM"}, {"measurement": "TI (IC50 / CC50), CVB4", "setting": "CVB4 [19]", "result": 5.22}, {"measurement": "IC50", "setting": "[20]", "result": 830, "unit": "nM"}, {"measurement": "IC50", "setting": "HRV1A [21]", "result": 1300, "unit": "nM"}, {"measurement": "IC50", "setting": "HRV16 [22]", "result": 1380, "unit": "nM"}, {"measurement": "IC50", "setting": "CVB4 [23]", "result": 3880, "unit": "nM"}, {"measurement": "IC50", "setting": "HRV1A, 2, 14, 16; Human rhinovirus sp., HRV1A, HeLa, read-out: IC50 (range over HRV1A, 2, 14, 16)", "result": "840 to 1400", "unit": "nM"}, {"measurement": "effect of drug washout on the antiviral effect", "setting": "HRV1A, 2, 14, 16; cells pre-treated 30 min or 18 h, washed with drug-free medium", "result": "completely abolished the antiviral effect"}, {"measurement": "time of addition giving half maximal effects", "setting": "HRV1A, 2, 14, 16; compound added before or post infection of HeLa cells with HRV", "result": "≤ 30", "unit": "min pi"}, {"measurement": "effect of virus pre-treatment on the inhibition profile", "setting": "HRV1A, 2, 14, 16; viruses pre-treated at up to 400 µM at 37°C for 30 min", "result": "did not affect the inhibition profile"}]}
{"smiles": "CCN(CC)CCCC(C)Nc1ccnc2cc(Cl)ccc12", "note": "(stereo not drawn) [chloroquine]", "values": [{"measurement": "IC90", "setting": "hepatitis C virus", "result": 20000, "unit": "nM"}]}
{"smiles": "C/C=C/[C@H]1O[C@@](O)([C@@H](C)[C@H](O)[C@H](C)[C@H]2OC(=O)/C(OC)=C/C(C)=C/[C@@H](C)[C@@H](O)[C@@H](CC)[C@@H](O)[C@H](C)C/C(C)=C/C=C/[C@@H]2OC)C[C@@H](O[C@H]2C[C@@H](O)[C@H](OC(N)=O)[C@@H](C)O2)[C@@H]1C", "note": "[concanamycin A]", "values": [{"measurement": "v-ATPase activity (ATP hydrolysis, production of Pi)", "setting": "v-ATPase", "result": "completely blocked the production of Pi"}, {"measurement": "pH of isolated CCV", "setting": "[2]", "result": "neutralized the pH of CCV in a dose-dependent manner"}]}
